Where two headings read alike, the source gives them in different places.
Tested on: SARS-CoV-2-specific CD4+ T cells (OX40+CD137+) in PBMC
Type: cell-based, human
[1] = CD4+ T cell epitopes identified by AIM assay, share of donors responding
[2] = CD4+ T cell epitopes identified by AIM assay, sum of response per responding donor
[3] = CD4+ T cell epitopes identified by AIM assay, total response
[4] = CD4+ T cell epitopes identified by AIM assay, percent of tested donors responding
[5] = CD4+ T cell epitopes identified by AIM assay, total response summed over donors

Sequence	Frequency of response (%) [1] [%]	Magnitude by # of responding donors [2]	Sum of response [3]	Frequency of response (%)	Magnitude by # of responding donors	Sum of response	Frequency of response (%) [4] [%]	Sum of response [5]
NVLFSTVFPPTSFGP	7	109	109					
LVAAGLEAPFLYLYA	9	133	133					
PCPIHFYSKWYIRVG				55	491	2948		
STECSNLLLQYGSFC	8	314	314					
LIFLWLLWPVTLACF	8	1194	1194					
RFASVYAWNRKRISN	27	241	722					
RENNRVVISSDVLVN	33	170	170					
PSGTWLTYTGAIKLD [SEQ ID NO 248]				42	517	2583		
TRFQTLLALHRSYLT		2172					18	4343
FIASFRLFARTRSMW	8	353	353					
ASRELKVTFFPDLNG	15	162	324					
KLLKSIAATRGATVV [SEQ ID NO 258]		230					6	230
IPFAMQMAYRFNGIG	18	187	373					
LIRQGTDYKHWPQIA	15	216	431					
LLWPVTLACFVLAAV	17	260	520					
PVYSFLPGVYSVIYL	8	650	650					
TRRIRGGDGKMKDLS	8	151	151					
TFKCYGVSPTKLNDL	8	221	221					
SALEPLVDLPIGINI	9	167	167					
SLLIVNNATNVVIKV		164					9	164

Sequence	Frequency of response (%) [1] [%]	Magnitude by # of responding donors [2]	Sum of response [3]	Frequency of response (%)	Magnitude by # of responding donors	Sum of response	Frequency of response (%) [4] [%]	Sum of response [5]
GSSGVVNPVMEPIYD	7	186	186					
YFTSDYYQLYSTQLS	8	198	198					
QDALFAYTKRNVIPT	6	132	132					
FLCWHTNCYDYCIPY	7	209	209					
KTDGTLMIERFVSLA	7	150	150					
SWFTALTQHGKEDLK	23	1088	3265					
GTILTRPLLESELVI	17	161	322					
IRGWIFGTTLDSKTQ	9	327	327					
NLVIGFLFLTWICLL	7	261	261					
SIAIPTNFTISVTTE	8	274	274					
LTGTGVLTESNKKFL	7	427	427					
FGLVAEWFLAYILFT	8	219	219					
CPFGEVFNATRFASV		108					9	108
LGVYYHKNNKSWMES	9	259	259					
LGASQRVAGDSGFAA	15	491	981					
TVTLLPAADLDDFSK	7	648	648					
ALLAVFQSASKIITL [SEQ ID NO 249]	9	178	178					
ITGGIAIAMACLVGL	17	207	414					
PRWYFYYLGTGPEAG	7	750	750					
YSRYRIGNYKLNTDH	15	276	551					

Sequence	Frequency of response (%) [1] [%]	Magnitude by # of responding donors [2]	Sum of response [3]	Frequency of response (%)	Magnitude by # of responding donors	Sum of response	Frequency of response (%) [4] [%]	Sum of response [5]
RFYFYTSKTTVASLI	8	126	126					
NHTKKWKYPQVNGLT	9	123	123					
TDTGVEHVTFFIYNK	7	118	118					
SEMVMCGGSLYVKPG	6	217	217					
EDFLEYHDVRVVLDF	18	571	1141					
CVDEAGSKSPIQYID	9	327	327					
KLNDLCFTNVYADSF	8	130	130					
KKPRQKRTATKAYNV	31	227	907					
RLWLCWKCRSKNPLL	7	290	290					
PLIELCVDEAGSKSP	18	171	341					
PRPPLNRNYVFTGYR	8	101	101					
LLLLDRLNQLESKMS [SEQ ID NO 247]	21	581	1742					
FPRGQGVPINTNSSP	8	397	397					
DSKTQSLLIVNNATN	9	108	108					
TNILLNVPLHGTILT	25	543	1628					
VVLSFELLHAPATVC	7	317	317					
LMIERFVSLAIDAYP [SEQ ID NO 259]		388					36	1941
IWVATEGALNTPKDH	7	200	200					
